# Experimental data published in PubChem BioAssay (NCI).
#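 Five concentrations, 48 hours, 96-well plates. TGI: total growth inhibition.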 Where a SMILES comes first, the peptide text is derived from it. The star is where a group is joined. Cbz = O=C(OCc1ccccc1)*
# Key:
# Test in all cases: inhibition of tumour cell growth, NCI panel, 48 h
# SR leukemia = system: SR leukemia
# HL-60(TB) leukemia = system: HL-60(TB) leukemia
# UACC-257 melanoma = system: UACC-257 melanoma
# A498 renal = system: A498 renal
# UACC-62 melanoma = system: UACC-62 melanoma
# HOP-62 NSCLC = system: HOP-62 NSCLC
# K-562 leukemia = system: K-562 leukemia
# UO-31 renal = system: UO-31 renal
# NCI-H226 lung = system: NCI-H226 lung
# OVCAR-4 ovarian = system: OVCAR-4 ovarian
# SF-539 CNS = system: SF-539 CNS
# RPMI-8226 leukemia = system: RPMI-8226 leukemia
SMILES,TGI (SR leukemia) [µM],TGI (HL-60(TB) leukemia) [µM],TGI (UACC-257 melanoma) [µM],TGI (A498 renal) [µM],TGI (UACC-62 melanoma) [µM],TGI (HOP-62 NSCLC) [µM],TGI (K-562 leukemia) [µM],TGI (UO-31 renal) [µM],TGI (NCI-H226 lung) [µM],TGI (OVCAR-4 ovarian) [µM],TGI (SF-539 CNS) [µM],TGI (RPMI-8226 leukemia) [µM]
COc1ccc(N2C(=O)C(=O)N(c3ccc(N=Nc4ccccc4)cc3)C2=S)cc1,> 100,> 100,34.3,52.3,31.6,34.6,> 100,30.3,48.4,37.7,34.2,> 100
CC(=O)SC(C[N+](=O)[O-])c1ccc2c(c1)OCO2 (stereo unspecified),7.27,4.67,22.3,18.3,11.3,36.5,> 28.7,11.9,46,23.1,5.14,> 22.7
Cc1ccc(CSC(N)=Nc2ccccc2)cc1C,55.8,62.9,36.9,33.2,26.6,49.1,61.7,–,43,36.5,53.1,75.9
C=C1CCCCCCCCC/C=C/1SCCCSC,> 100,> 100,> 100,> 100,> 100,> 100,> 100,> 100,> 100,> 100,> 100,> 100
COc1ccc2nc3cc(Cl)ccc3c(Sc3ccc(NC(C)=O)cc3)c2c1,16.1,52,> 41,> 60.9,> 42.1,> 60.2,> 100,> 33.4,> 30.9,> 52.6,27.3,83.8
CCOc1cc(NC(C)=O)ccc1C(=O)NNS(=O)(=O)c1ccc(NC(C)=O)cc1,> 100,78.8,> 100,> 100,> 100,> 100,> 100,> 100,89.5,> 100,> 100,86.4
Nc1c(S(=O)(=O)c2ccccc2)c2nc3ccccc3nc2n2c1nc1ccccc12,> 100,> 100,> 100,> 100,> 100,> 49.6,> 100,> 100,> 75.1,> 80.5,> 53.9,> 100
Cc1[nH]n(-c2nc(O)c(-c3ccccc3)c(=O)[nH]2)c(=O)c1CCO,> 100,> 100,> 100,> 100,> 100,–,> 100,> 100,> 100,> 100,> 100,> 100
CCOC(=O)CCC(NC(=O)C(Cc1ccccc1)NC(=O)OCc1ccccc1)C(=O)OCC (stereo not drawn) (Cbz-Phe-Glu(OEt)-OEt; configuration not given here),> 68.8,41.2,30.5,43.9,32.5,32.5,> 100,31.2,32.6,32.1,37.6,> 76
